This is an account of results in patent US9737523B2, “Anti-fibrogenic compounds, methods and uses thereof” (priority 2013, dated 2017).

For experiment [1], the system named is MMP-2. Description: MMP-2 expression in human dermal fibroblasts, Western blot. The conditions noted are these: various concentrations, 48 hours. The format is cell-based. On the procedure: In another set of experiments, fibroblasts at 80% confluence were treated with either kynurenine or tryptophan at the indicated concentrations as mentioned in the result section in DMEM containing 2% FBS and antibiotics for 48 hours. Cells were then harvested by trypsinization and western blot analysis was performed.
(§1) Cells were harvested by Trypsin/EDTA and lysed with cell lysis buffer containing 50 mM Tris-HCl (pH7.40), 150 mM NaCl, 10 mM EDTA, 5 mM EGTA, 1% TritonX-100™, 0.5% Igepal CA-630, 0.025% NaN3 and protease inhibitor cocktail (Sigma™). Cell debris was removed by centrifugation at 20,000×g for 10 minutes. The protein concentration in supernatant was determined using the MicroBCA™ method (Pierce™, Rockford, Ill.). Proteins in supernatant were mixed with protein sample loading buffer (final concentration: 60 mM Tris-HCl (pH 6.80), 2% SDS, 10% glycerol, 1.5% β-mercaptoethanol, 0.002% bromophenol blue) and size fractioned by 10% of SDS-polyacrylamide gel. After proteins were transferred onto nitrocellulose membrane by iBlot™ (Invitrogen Life Technologies™), non-specific binding were blocked with phosphate buffer saline twenty 20 (PBS-T) containing 5% skim milk for 1 hour. The membrane was then incubated with primary antibody overnight. […]
(A western blot detects proteins with antibodies after separation by electrophoresis.)

For experiment [2], the system named is synoviocytes. Description: MMP-1 expression in synoviocytes, Western blot. The format is cell-based, human. As to conditions: 12.5 μg/ml to 150 μg/ml, 48 hours. On the procedure:
Synoviocytes were obtained by enzymatic digestion of synovial membrane from patients with rheumatoid arthritis during joint replacement with 1 mg/ml collagenase (Sigma™) in RPMI1640 (Invitrogen Life Technologies™) for 4 hours at 37° C. Dissociated cells were plated in synoviocyte growth medium (Cell Applications Inc.™, San Diego, Calif.) supplemented with penicillin G sodium (100 U/mL), streptomycin sulfate (100 μg/mL), and amphotericin B (0.25 μg/mL).
(§2) Similarly, other cells such as synoviocytes, IMR-90, keratinocytes, UMSCC and A549 were treated with kynurenine at concentrations of 12.5 to 150 μg/ml in appropriate media for each cell type as described above for 48 hours. Cells were then harvested for western blot analysis.
as §1, with “gel.” for “gel. After proteins were transferred onto nitrocellulose membrane by iBlot™ (Invitrogen Life Technologies™), non-specific binding were blocked with phosphate buffer saline twenty 20 (PBS-T) containing 5% skim milk for 1 hour. The membrane was then incubated with primary antibody overnight.”

Experiment [3] deals with fibronectin. Description: Fibronectin mRNA in human dermal fibroblasts, real-time PCR. As to conditions: various concentration. The format is cell-based.
Experiment [4] relates to dermal keratinocytes. Description: MMP-1 expression in primary dermal keratinocytes, Western blot. The format is cell-based, human. As to conditions: 12.5 to 150 μg/ml, 48 hours. On the procedure:
Human foreskin keratinocytes were established as previously described (Ghahary et al., 1998). Cells were cultured in serum-free keratinocyte medium (KSFM; Invitrogen Life Technologies™) supplemented with bovine pituitary extract (50 μg/ml) and EGF (0.2 ng/ml). These cells were used at passages 2-5.
as §2
as §1, with “gel.” for “gel. After proteins were transferred onto nitrocellulose membrane by iBlot™ (Invitrogen Life Technologies™), non-specific binding were blocked with phosphate buffer saline twenty 20 (PBS-T) containing 5% skim milk for 1 hour. The membrane was then incubated with primary antibody overnight.”

The test system of experiment [5] is splenocytes. Description: ConA-induced splenocyte proliferation. It counts as cell-based. As to conditions: 100 and 150 μg/ml.
For experiment [6], the system named is MMP-1. Description: MMP-1 expression in human dermal fibroblasts, Western blot. As to conditions: for MMP-1 expression: 48 hours. It counts as cell-based.
Procedure: Cells were then harvested after 48 hours and western blot analysis was performed.
Cells were harvested by Trypsin/EDTA and lysed with cell lysis buffer containing 50 mM Tris-HCl (pH7.40), 150 mM NaCl, 10 mM EDTA, 5 mM EGTA, 1% TritonX-100™, 0.5% Igepal CA-630, 0.025% NaN3 and protease inhibitor cocktail (Sigma™). Cell debris was removed by centrifugation at 20,000×g for 10 minutes. The protein concentration in supernatant was determined using the MicroBCA™ method (Pierce™, Rockford, Ill.). Proteins in supernatant were mixed with protein sample loading buffer (final concentration: 60 mM Tris-HCl (pH 6.80), 2% SDS, 10% glycerol, 1.5% β-mercaptoethanol, 0.002% bromophenol blue) and size fractioned by 10% of SDS-polyacrylamide gel. After proteins were transferred onto nitrocellulose membrane by iBlot™ (Invitrogen Life Technologies™), non-specific binding were blocked with phosphate buffer saline twenty 20 (PBS-T) containing 5% skim milk for 1 hour. The membrane was then incubated with primary antibody overnight. After incubation with a secondary antibody for 1 hour, protein bands were visualized by an enhanced chemiluminescence (ECL™) detection system (Santa Cruz Biotechnology™, Santa Cruz, Calif.). The primary antibodies used in this study were: mouse monoclonal anti-human MMP-1 (R&D Systems™, Minneapolis, Minn.), mouse monoclonal anti-human MMP-3 (R&D System™), rabbit monoclonal anti-human MMP-2 (Epitomics™, Burlingame, Calif.), rabbit polyclonal anti-phospho-MEK1/2 (Ser217/221™) (Cell Signaling Technology™, Danvers, Mass.), rabbit polyclonal anti-phospho-p44/42 MAPK (Thr202/Tyr204) (Cell Signaling Technology™), monoclonal anti-β-actin (Sigma™), and mouse anti-type-1 procollagen (Developmental Studies Hybridoma Bank™, Iowa City, Iowa). The secondary antibodies were either goat anti-mouse IgG (H+L) HPR conjugate or goat anti-rabbit IgG (H+L) HPR conjugate (Bio-rad Laboratory™ (Mississauga, ON, Canada). Secondary antibodies were used at a concentration of 1:3000.
Experiment [7] concerns MEK. Description: MEK phosphorylation in dermal fibroblasts, Western blot. It counts as cell-based, human. As to conditions: 100 μg/ml. On the procedure: as §1, with “overnight. After incubation with a secondary antibody for 1 hour, protein bands were visualized by an enhanced chemiluminescence (ECL™) detection system (Santa Cruz Biotechnology™, Santa Cruz, Calif.).” for “overnight.”

Experiment [8] relates to UMSCC. Description: MMP-1 expression in squamous cell carcinoma cell line UMSCC, Western blot. The conditions noted are these: 12.5 to 150 μg/ml, 48 hours. The format is cell-based, human. As for the experimental part:
The squamous cell carcinoma (UMSCC) cell line derived from patients with head and neck cancer (ATCC™, Manassas, Va.) were maintained in RPMI-1640 medium with 10% FBS. The Human keratinocyte cell line HACAT (ATCC) and the carcinomic human alveolar basal epithelial cell line A549 (ATCC™) were cultured in DMEM with 10% FBS. The diploid lung fibroblasts IMR-90 (ATCC™) were maintained in Minimum Essential Medium (MEM, Invitrogen™) with 10% FBS.
as §2
as §1, with “gel.” for “gel. After proteins were transferred onto nitrocellulose membrane by iBlot™ (Invitrogen Life Technologies™), non-specific binding were blocked with phosphate buffer saline twenty 20 (PBS-T) containing 5% skim milk for 1 hour. The membrane was then incubated with primary antibody overnight.”

The test system of experiment [9] is human dermal fibroblasts. Description: MTT proliferation assay of human dermal fibroblasts. The format is cell-based. As to conditions: up to 150 μg/ml, 48 hours. On the procedure:
The effect of kynurenine on human dermal fibroblast proliferation was detected by MTT [3-(4,5-Dimethylthiazol-2-yl)-2,5-diphenyltetrazolium bromide] assay. In brief, 10,000 cells were seeded on a 24 well-plate and incubated with different concentrations of kynurenine for 48 hours. Media were removed and 0.2 ml of MTT (5 mg/ml in DMEM containing 2% FBS) was added. Cells were incubated with MIT for 4 hours. After washing 3 times with PBS, 0.2 ml of DMSO was added to dissolve the crystals. Absorbance was measured at 570 nm.

Consider `Nc1ccccc1C(=O)CC(N)C(=O)O` (racemic) [kynurenine], for which the “MMP-2 expression versus untreated fibroblasts” value in experiment [1] is recorded as “no significant difference”. Moreover, the MMP-1 expression entry in [2] is on record as “up-regulated”; in [6] (25-150 μg/ml) it was “significantly increased”; in experiment [6] (kynurenine isoforms, 50 μg/ml) it was “increase”. Also, the “fibronectin expression (mRNA)” value in experiment [3] is “capable of down-regulating”. The “MMP-1 expression versus untreated controls” value in experiment [4] and in experiment [8] was “did not significantly differ” in each case. Moreover, the “reduction in conA-induced splenocyte proliferation” value in experiment [5] (after 48 hours) is “about 2 fold”; in experiment [5] (after 96 hours), about 5 fold. The “MMP1 protein expression 48 hours after treatment removal” value in [6] (100 μg/ml for 48 hours, then 48 hours after removal) is recorded as “gradually reduced to normal levels”. Also, in [6] (100 μg/ml for 48 hours, then another 24 hours after removal), the “MMP1 expression versus untreated cells after treatment removal” value was “remained significantly higher”. Moreover, the MMP1 expression result in experiment [6] (100 μg/ml, at 48 hours after treatment) is on record as “marked increase”. In addition, the “concentration that could stimulate MMP-1 expression (as little as)” value in experiment [6] (dermal fibroblasts, data not shown) was determined as 12.5 µg/mL. The “time of peak MEK activation” value in [7] came to 8 h. The MEK phosphorylation result in experiment [7] (different times) was “detection of the ERK1/2 upstream signal molecule MEK phosphorylation”. In addition, in [9], the “fibroblast proliferation (MTT)” value was “no significant effect”.
